# Data reported in patent US8906904B2, “Alkoxy pyrazoles as soluble guanylate cyclase activators” (Boehringer Ingelheim International GmbH, priority 2012, dated 2014).
# Experiment: human liver microsome (HLM) metabolic stability assay
# Format: in vitro ADME
# Details: human liver microsomes; % hepatic blood flow calculated from t1/2
# Experimental: The 5 time point, high-throughput human liver microsome (HLM) metabolic stability assay is designed to determine in vitro compound metabolism. Compounds are incubated with HLMs at a concentration of 1 uM, at 37° C., for a total of 60 min. The percent of compound remaining at 5, 15, 30, and 60 min is used to calculate the t½ (min), CLint (mL/min/kg), CLh (mL/min/kg), and % Qh. The assay is based on a 96-well format and can accommodate up to 92 compounds per plate (n=1).
# Using the 96-well multi-channel head, the Biomek FX, equipped with a Peltier heating block/shaker, is programmed to accomplish the following steps: • 1. Pipette 175 uL of 1.15 mg/mL microsomes into each of the 96 conical inserts (Analytical Sales and Products, catalog number 96PL05) that fit into the plate of the Peltier heating block/shaker (the incubation plate) • 2. Add 5 uL of compounds from the assay plate to the microsomes and shake the mixture at 600 rpm at 42.1° C. for 10 min (a setting of 42.1° C. on the Peltier is required for the samples to incubate at 37° C.) • 3. After 10 min, prompt the user to add the NADPH plate to the deck and add 20 uL from the NADPH plate to the incubation plate to start the reaction • 4. Add 215 uL of 100%, cold acetonitrile containing an internal standard(s) to a 0 minute, 5 minute, 15 minute, 30 minute, and 60 minute “quench” plate • 5. At 0 min, 5 min, 15 min, 30 min, and 60 min into the incubation, aspirate 12 uL from the incubation mixture and add it to the quench solution to stop the reaction • 6. Add 185 uL HPLC grade water to each well of the 0, 5, 15, 30 and 60 minute quench plates to dilute compounds to the appropriate concentration for the mass spectrometer
# After all time points are collected, the quench plates are sealed with 96-well pierceable plate mats or heat sealing foil and centrifuged at 3000 rpm for 15 min to pellet the microsomes.
# The plates are analyzed using LC/MS/MS with electron spray ionization (ESI) and the previously determined MRM transitions. The LC method includes the following parameters:
# Using an Excel template in Activitybase, the peak areas corresponding to 5, 15, 30 and 60 min are compared to the peak area at 0 min to calculate the percent of remaining compound using the following equation: Percent compound remaining=(AUC at Time t min/AUC at Time 0 min)×100 where t=0, 5, 15, 30 or 60 min.
# Time (min) is plotted against the natural logarithm (Ln) of the percent compound remaining to determine the slope. The slope is used to calculate t½ (min) using the equation, t½=0.693/slope.
# Preferred compounds have % Qh values of less than 24.
row,HLM (% Qh),SMILES
1,<24,COc1c(C(=O)O)cnn1-c1cccc(-c2cccc(C)c2OCc2cc(C)c3c(c2C)CCN(C2CCOCC2)C3)n1 [Compound 120]
2,<24,COCCOc1c(C(=O)O)cnn1-c1cccc(-c2cccc(C)c2OCc2ccc3c(c2C)CCN(C2CCOC2)C3)n1 (stereo not drawn) [Compound 150]
3,25,COc1c(C(=O)O)cnn1-c1cccc(-c2cccc(C)c2OCc2ccc3c(c2)OCCN(C2CCOCC2)C3)n1 [Compound 130]
4,<24,COCCOc1c(C(=O)O)cnn1-c1cccc(-c2cccc(C)c2OCc2ccc3c(c2C)CCN(C2CCCOC2)C3)n1 (stereo not drawn) [Compound 149]
5,47,"COc1c(C(=O)O)cnn1-c1cccc(-c2cccc(C)c2OCc2ccc3c(c2)CCN(CC(F)(F)F)C3)n1 [Compound 11, 5-methoxy-1-(6-{3-methyl-2-[2-(2,2,2-trifluoro-ethyl)-1,2,3,4-tetrahydro-isoquinolin-6-ylmethoxy]-phenyl}-pyridin-2-yl)-1H-pyrazole-4-carboxylic acid]"
6,31,COc1c(C(=O)O)cnn1-c1cccc(-c2ccc(C)cc2OCc2ccc3c(c2)CCN(C2CCOCC2)C3)n1 [Compound 98]
7,<24,CCOc1c(C(=O)O)cnn1-c1cccc(-c2cccc(C)c2OCc2ccc3c(c2C)CCN(CCOCCO)C3)n1 [Compound 168]
8,<24,CCOc1c(C(=O)O)cnn1-c1cccc(-c2cccc(C)c2OCc2ccc3c(c2C)CCN(C[C@H]2COCCO2)C3)n1 [Compound 170]
9,<24,CCOc1c(C(=O)O)cnn1-c1cccc(-c2cccc(C)c2OCc2ccc3c(c2C)CCN(C[C@@H]2CCCOC2)C3)n1 [Compound 152]
10,<24,COc1c(C(=O)O)cnn1-c1cccc(-c2cccc(C)c2OCc2cc3c(c(C(F)(F)F)c2)CN(C2CCOCC2)CC3)n1 [Compound 158]
11,27,COc1c(C(=O)O)cnn1-c1cccc(-c2cccc(C)c2OCc2ccc3c(c2C(F)(F)F)CCN(C2CCOCC2)C3)n1 [Compound 166]
12,25,COc1c(C(=O)O)cnn1-c1cccc(-c2cccc(C)c2OCc2ccc3c(c2)CCN([C@H]2CC[C@@]4(CCCO4)CC2)C3)n1 [Compound 103]
13,<24,COc1c(C(=O)O)cnn1-c1cccc(-c2cccc(C)c2OCc2ccc3c(c2)CCN(C(C)C)C3)n1 [Compound 13]
14,<24,CCOc1c(C(=O)O)cnn1-c1cccc(-c2cccc(C)c2OCc2ccc3c(c2C)CCN([C@H]2CCCOC2)C3)n1 [Compound 129]
15,31,CCOc1c(C(=O)O)cnn1-c1cccc(-c2cccc(C)c2OCc2cc3c(c(C(F)(F)F)c2)CN(C2CCOCC2)CC3)n1 [Compound 157]
16,<24,CCOc1c(C(=O)O)cnn1-c1cccc(-c2cccc(C)c2OCc2ccc3c(c2C)CCN([C@@H]2CCOC2)C3)n1 [Compound 126]

# Further lines, the compound ahead of its results:
row,SMILES,HLM (% Qh)
1,CCOc1c(C(=O)O)cnn1-c1cccc(-c2cccc(C)c2OCc2ccc3c(c2C)CCN(C2CCOCC2)C3)n1 [Compound 114],<24
2,COc1c(C(=O)O)cnn1-c1cccc(-c2cccc(C)c2OCc2ccc3c(c2)CCN(CC2(C)COC2)C3)n1 [Compound 12],<24
3,COc1c(C(=O)O)cnn1-c1cccc(-c2cccc(C)c2OCc2ccc3c(c2)CCCN(C2CCOCC2)C3)n1 [Compound 100],31
4,CCOc1c(C(=O)O)cnn1-c1cccc(-c2cccc(C)c2OCc2cc(C)c3c(c2)CCN(C2CCOCC2)C3)n1 [Compound 169],<24
5,Cc1cccc(-c2cccc(-n3ncc(C(=O)O)c3OC(C)C)n2)c1OCc1ccc2c(c1)CCN([C@H]1CCOC1)C2 [Compound 111],<24
6,Cc1cccc(-c2cccc(-n3ncc(C(=O)O)c3OCC(C)C)n2)c1OCc1ccc2c(c1C)CCN(C1CCOCC1)C2 [Compound 134],32
7,CCOc1c(C(=O)O)cnn1-c1cccc(-c2cccc(C)c2OCc2ccc3c(c2C)CCN(C[C@H]2COC(C)(C)O2)C3)n1 [Compound 179],<24
8,COc1c(C(=O)O)cnn1-c1cccc(-c2ccc(C)cc2OCc2ccc3c(c2C)CCN(C2CCOCC2)C3)n1 [Compound 99],<24
9,CCOc1c(C(=O)O)cnn1-c1cccc(-c2cccc(C)c2OCc2ccc3c(c2C)CCN(C2COC(C)(C)OC2)C3)n1 [Compound 155],<24
10,COc1c(C(=O)O)cnn1-c1cccc(-c2cccc(C)c2OCc2ccc3c(c2F)CCN(C2COC2)C3)n1 [Compound 177],<24
11,Cc1cccc(-c2cccc(-n3ncc(C(=O)O)c3OC(C)C)n2)c1OCc1ccc2c(c1C)CCN(C1CCOCC1)C2 [Compound 104],26
12,COc1c(C(=O)O)cnn1-c1cccc(-c2cccc(C)c2OCc2cc3c(cc2C)CN(C2CCOCC2)C3)n1 [Compound 143],<24
13,CCOc1c(C(=O)O)cnn1-c1cccc(-c2cccc(C)c2OCc2ccc3c(c2C)CN(C2CCOCC2)C3)n1 [Compound 119],<24
14,COCCOc1c(C(=O)O)cnn1-c1cccc(-c2cccc(C)c2OCc2ccc3c(c2C)CCN(C2CCOCC2)C3)n1 [Compound 151],<24
15,CCOc1c(C(=O)O)cnn1-c1cccc(-c2cccc(C)c2OCc2cc(C)c3c(c2)CCN(C2CCCOC2)C3)n1 (stereo not drawn) [Compound 173],<24
16,CCOc1c(C(=O)O)cnn1-c1cccc(-c2cccc(C)c2OCc2ccc3c(c2CC)CCN(C2CCOCC2)C3)n1 [Compound 154],<24
17,COc1c(C(=O)O)cnn1-c1cccc(-c2cccc(C(F)(F)F)c2OCc2ccc3c(c2)CCN(C2COC2)C3)n1 [Compound 9],<24
18,COc1c(C(=O)O)cnn1-c1cccc(-c2cccc(C)c2OCc2cc3c(cc2C)CN(C2CCOCC2)CC3)n1 [Compound 121],<24
19,"COc1c(C(=O)O)cnn1-c1cccc(-c2cccc(C)c2OCc2ccc3c(c2C)CCN(C2CCOCC2)C3=O)n1 [Compound 167, 5-Methoxy-1-(6-{3-methyl-2-[5-methyl-1-oxo-2-(tetrahydro-pyran-4-yl)-1,2,3,4-tetrahydro-isoquinolin-6-ylmethoxy]-phenyl}-pyridin-2-yl)-1H-pyrazole-4-carboxylic acid]",<24
20,"CCOc1c(C(=O)O)cnn1-c1cccc(-c2cccc(C)c2OCc2ccc3c(c2)CCN(CC2CCCO2)C3)n1 (stereo not drawn) [Compound 101, 5-ethoxy-1-(6-{3-methyl-2-[2-(tetrahydro-furan-2-ylmethyl)-1,2,3,4-tetrahydro-isoquinolin-6-ylmethoxy]-phenyl}-pyridin-2-yl)-1H-pyrazole-4-carboxylic acid]",<24
21,COc1c(C(=O)O)cnn1-c1cccc(-c2cccc(C)c2OCc2ccc3c(c2C)CCN([C@H]2CCCOC2)C3)n1 [Compound 141],<24
22,COc1c(C(=O)O)cnn1-c1cccc(-c2cccc(C)c2OCc2cc(C)c3c(c2C)CCN(C2COC2)C3)n1 [Compound 178],<24
23,CCOc1c(C(=O)O)cnn1-c1cccc(-c2cccc(C)c2OCc2ccc3c(c2F)CCN(C2CCOCC2)C3)n1 [Compound 159],<24
